Assays:
[1] = target: T1, actin.MassS1 (bovine masseter myosin S1 bound to pyrene-actin) (Bos taurus, UniProt Q9BE39); test: ATP-induced dissociation of pyr.actin.S1, stopped flow, pyrene fluorescence (slow, masseter); type: biochemical; design: reduction of amplitude of the dissociation reaction in the presence of phosphate / increase of activation energy by phosphate / activation energy (Ea) of K1k+2: dose or concentration left out as unconfirmed; conditions: for kobs of ATP-induced dissociation: 25 µM ATP; for activation energy (Ea) of K1k+2: Mass
T1 construct: from tissue; host or cells: bovine masseter muscle (myosin); rabbit muscle (actin)
Method: (§1) Myosin was prepared from the rabbit psoas (for fast MyHC-II) and the bovine masseter muscle (for slow MyHC-I) according to Margossian and Lowey ([41]), and was subsequently digested to subfragment 1 (S1) with chymotrypsin as described by Weeds and Taylor ([57]) which removes the regulatory light chain region.
(§2) Actin was prepared from rabbit muscle as described by Spudich & Watt ([52]) and labeled with pyrene iodoacetamide to give pyrene-labeled actin as described by Criddle et al. ([15]). Protein stocks of S1 and of pyrene-labeled actin were stored at 4°C and were used for up to 2 wk. In the text herein, reference to actin implies pyrene-labeled actin.
(§3) Stopped-flow experiments were performed essentially as described previously ([4]) using a HiTech Scientific SF-61DX2 stopped-flow system; 4–5 transients were acquired for each ATP transient (Kinetic Studio suite). The dead time of the equipment was 0.002 s. A wide temperature range (5–45°C) for measurements was available because of a new adaptation of the standard stopped-flow machine [see Ref. [56]). Briefly, the samples were held at room temperature (20°C) and then passed through a heat exchanger, at the temperature required for the measurement, just before entering the mixing chamber/observation chamber of the stopped flow. The samples were only exposed to the temperature of the measurement for a few seconds, thus allowing measurements of proteins under conditions where they are not usually stable for long.
The ATP-induced dissociation rate of actin.S1 was measured in the stopped flow by mixing a fixed concentration of pyr.actin.S1 complex ([…]) with excess ATP and monitoring fluorescence transients from the pyrene-labeled actin [excitation at 365 nm, emission through a KV389 nm cutoff filter (Schott, Mainz, Germany)]. Details of the kinetic analysis are given under Data Fitting and Interpretation Approach.
(§4) The averaged transients were fitted with a single (Eqn 1) or, if needed, a double exponential equation (Eqn 2):(1)) Ft=ΔF·e^(^−kobs·t)+F∞ or(2)) Ft=ΔF(1)·e^(^−kobs(1)·t)+ΔF(2)·e^(^−kobs(2)·t)+F∞ where Ft is the observed fluorescence at time t, F∞ is the fluorescence at the end of the transient (t = ∞) and ΔF is the total change of fluorescence observed. […] A plot of [ATP] vs. kobs was used to derive the values of K1 and k+2 (using Origin software version 6.0), as defined in Fig. 1 and Eqn 3.
(§5) The values of –Ea/R or or ΔH°/R were derived from the slopes.

[2] = tested on: actin.PsoS1 (rabbit psoas myosin S1 bound to pyrene-actin); test: ATP-induced dissociation of pyr.actin.S1, stopped flow, pyrene fluorescence (fast, psoas); type: biochemical; conditions: for kobs of ATP-induced dissociation: 25 µM ATP; for activation energy (Ea) of K1k+2: Pso
Method: as §1, §2, §3
The ATP-induced dissociation rate of actin.S1 was measured in the stopped flow by mixing a fixed concentration of pyr.actin.S1 complex (end concentration 0.25 µM) with excess ATP and monitoring fluorescence transients from the pyrene-labeled actin [excitation at 365 nm, emission through a KV389 nm cutoff filter (Schott, Mainz, Germany)]. Details of the kinetic analysis are given under Data Fitting and Interpretation Approach.
as §4, §5

actin.MassS1 = target: T2, actin.MassS1 (Bos taurus, UniProt Q9BE39); test: ADP release rate constant (k-AD), ADP displacement by excess ATP; type: biochemical, bovine; design: effect of Pi on kobs of ADP release / increase in kobs of ADP release in the presence of phosphate / activation energy (Ea) of k−AD (ADP release): dose or concentration left out as unconfirmed; conditions: […] mM Pi
T2 construct: from tissue; host or cells: bovine masseter muscle (myosin); rabbit muscle (actin)
Method: Two types of myosins were studied which are known to differ in their dissociation constant for nucleotides ([5], [51]). The rate constant for the release of ADP (k−ADP) is relatively slow for masseter S1 and can easily be measured in an ADP displacement experiment. This step is very fast for a fast muscle isoform and too fast to measure by current equipment. Briefly, actin.^MassS1 saturated with 75 µM of ADP (A.M.D complex) was mixed with a large excess of ATP (8 mM) in the stopped flow. Then the kobs values, fitted to a single exponential equation (Eqn 1) defined the rate constant by which ADP is released by the ternary A.M.D complex (k−AD).
The temperature dependence of the above studied biochemical steps K1k+2, KADP, KPi, and KADP+Pi data were plotted as the natural logarithm of the measured parameter against the reciprocal of temperature in degrees Kelvin (1/T °K) and fitted with linear regression using the Arrhenius (rate constants) or Van’t Hoff (equilibrium constants) equations(7)) lnK1k+2=ln(A)−Ea/RT (8)) lnKeq=ΔS°/R−ΔH°/RT where Ea stands for activation energy, R is the gas constant, and A is a preexponential factor. The values of –Ea/R or or ΔH°/R were derived from the slopes.

Nc1ncnc2c1ncn2[C@@H]1O[C@H](COP(=O)(O)OP(=O)(O)OP(=O)(O)O)[C@@H](O)[C@H]1O [ATP]
kobs of ATP-induced dissociation ([1]; 0.5 µM pyrAct.MassS1, pH 7.0, 5°C): 26.7 s⁻¹
kobs of ATP-induced dissociation ([1]; 0.5 µM pyrAct.MassS1, pH 7.0, 25°C): 46.7 s⁻¹
kobs of ATP-induced dissociation ([1]; 0.5 µM pyrAct.MassS1, pH 7.0, 35°C): 64.9 s⁻¹
kobs of ATP-induced dissociation ([1]; 0.5 µM pyrAct.MassS1, pH 7.0, […]°C): 36.1 s⁻¹
kobs of ATP-induced dissociation ([1]; zero ADP, 20°C, pH 7.0): 37.5 s⁻¹
activation energy (Ea) of K1k+2 ([1]; pH 6.2, + […] mM Pi): 7.34 ± 0.17 kcal/mol
activation energy (Ea) of K1k+2 ([1]; pH 6.2, no Pi, 5–43°C): 5.69 ± 0.263 kcal/mol
activation energy (Ea) of K1k+2 ([1]; pH 7.0, + […] mM Pi): 7.15 ± 0.263 kcal/mol
activation energy (Ea) of K1k+2 ([1]; pH 7.0, no Pi, 5–43°C): 6.14 ± 0.335 kcal/mol
activation energy of the dissociation rate constant ([1]; masseter, in the presence of phosphate, irrespective of pH): 7.17 ± 0.24 kcal/mol
kobs of ATP-induced dissociation ([2]; 0.5 µM pyr-act.PsoS1, pH 7.0, 5°C): 84.8 s⁻¹
kobs of ATP-induced dissociation ([2]; 0.5 µM pyr-act.PsoS1, pH 7.0, 25°C): 208.5 s⁻¹
kobs of ATP-induced dissociation ([2]; 0.5 µM pyr-act.PsoS1, pH 7.0, 35°C): 296.9 s⁻¹
kobs of ATP-induced dissociation ([2]; 0.5 µM pyr-act.PsoS1, pH 7.0, 43°C): 374.4 s⁻¹
kobs of ATP-induced dissociation ([2]; 0.5 µM pyr-act.PsoS1, pH 7.0, […]°C): 136.2 s⁻¹
kobs of ATP-induced dissociation ([2]; zero ADP, 20°C, pH 7.0): 87.7 s⁻¹
activation energy (Ea) of K1k+2 ([2]; pH 6.2, + 30 mM Pi): 9.37 ± 0.382 kcal/mol
activation energy (Ea) of K1k+2 ([2]; pH 6.2, no Pi, 5–43°C): 7 ± 0.19 kcal/mol
activation energy (Ea) of K1k+2 ([2]; pH 7.0, + 30 mM Pi): 9.01 ± 0.287 kcal/mol
activation energy (Ea) of K1k+2 ([2]; pH 7.0, no Pi, 5–43°C): 6.76 ± 0.19 kcal/mol
activation energy of the dissociation rate constant ([2]; psoas, in the presence of phosphate, irrespective of pH): 9.08 ± 0.24 kcal/mol

O=P(O)(O)O [Pi, inorganic phosphate]
increase in kobs of ADP release in the presence of phosphate (actin.MassS1; pH 6.2): 30–50%
effect of Pi on kobs of ADP release (actin.MassS1; pH 7.0): little effect
reduction of amplitude of the dissociation reaction in the presence of phosphate ([1]; MassS1, […] mM Pi): 50%
increase of activation energy by phosphate ([1]; masseter, […] mM Pi vs no Pi): about 5 kJ/mol
reduction of amplitude of the dissociation reaction in the presence of phosphate ([2]; PsoS1, 30 mM Pi): 50%
increase of activation energy by phosphate ([2]; PsoS1, both pH values, 30 mM Pi vs no Pi): about 10 kJ/mol

From article PMC5814585, “Modulators of actin-myosin dissociation: basis for muscle type functional differences during fatigue” (American Journal of Physiology - Cell Physiology, 2017)
